Broadly, the melting point is the temperature, or range, at which the solid turns liquid. In turn, `CC(C)c1cccc(C(C)C)c1NC(=O)NS(=O)(=O)Oc1c(C(C)C)cccc1C(C)C` returned a melting point of 186 to 189 °C.
For the compound `CC=CN1C(=O)CN(c2ccccc2)C1=S`, the melting point stood at 74 °C.
With `CC(C)c1nn(C(=O)NC2CCCC2)c(=O)n1N`, the melting point came to 109 °C.
For the compound `Fc1ccccc1N1CCN(c2ccc(Cl)nn2)CC1`, the melting point is 148 °C.
The compound `CC(C)(C)OC(=O)C[C@H](NC(=O)CNC(=O)CCc1ccc(C(=N)N)cc1)C(=O)NC1(C(=O)O)CCCC1` returned a melting point of 136 to 138 °C.
Compound `COC(=O)c1cc(Br)c(O)c(O)c1Cl` gave a melting point of 103 °C.
In turn, `CS(=O)(=O)c1cccc(NC(=O)c2cnn3c(C(F)(F)F)cc(-c4ccc(C(F)(F)F)cc4)nc23)c1` registered a melting point of 259 °C.
`CCOC(=O)c1cn(-c2cnc3ccccc3c2)cn1` displayed a melting point of 170 to 171 °C.
Compound `Cc1ccc(NCC2CCNCC2)c(C(=O)Nc2ccc(F)cn2)c1` returned a melting point of 147 to 149 °C.
As for `COc1ccc(-c2c(C)c3cc(OC)ccc3n2CCCCCCBr)cc1`, the melting point was found to be 60 °C.
Compound `CC1(C)CC(=O)C2=C(C1)NC1=C(C(=O)CC(C)(C)C1)C2c1cccc(Oc2cc(Cl)cc(Cl)c2)c1` showed a melting point of 254 to 255 °C.
With `CCc1nc2c(C)cc(C)nc2n1Cc1ccc(C(C(C)C)C(C)C(=O)O)cc1` (stereo not given) the figure was 84 to 90 °C; with `COc1cc(N2CCN(C)CC2)ccc1-c1cnn2c(N)c(-c3cccc(O)c3)cnc12`, 217 to 220 °C.
As for `COc1ccc(C(=O)c2[nH]c3cc(Cl)ccc3c2NC(C)=O)cc1`, the melting point was in the range of 137 to 139 °C.
As for `O=C(Nc1ccc2[nH]c(=O)oc2c1)C(=O)N1CCC(Cc2ccc(O)cc2)CC1`, the melting point fell in the range of 235 to 239 °C.
For the compound `Cc1n[nH]c(C)c1Oc1cc(Cl)cc(Cl)c1`, the melting point lay within 85 to 87 °C.
Regarding `C=C1CCC2C3CCC4CC(O)CCC4(C)C3C(N)CC12C` (stereo not given), the melting point lay in the range of 144 to 149 °C.
Consider `COc1c(C)c2c(c(O)c1CC1=C(C)CC(C(=O)O)C1)C(=O)OC2` (stereo not given), for which the melting point is 208 to 211 °C.
Turning to `CCCCCCCCCOc1ccnc(C(=O)O)c1`, the melting point was in the range of 89 to 92 °C.
With `C[C@H](Cn1cnnn1)n1cnc2cc3c(=O)n(C4CC4)nnc3cc2c1=O`, the melting point is 245 to 246 °C.
In the case of `COCCN(CCOC)c1ccc(NC(=O)c2ccc(C)c(Nc3nccc(-c4cccnc4)n3)c2)cc1C(F)(F)F`, the melting point is 156 to 157 °C.
As to `Nc1cc(Cl)cc(Cl)c1C(=O)NCc1ccccc1`, the melting point was in the range of 90 to 96 °C.
`Cn1c(NCc2cccc(NC(=O)C=Cc3ccccc3Cl)c2)nc2ccccc21` displayed a melting point of 188 to 191 °C.
As to `NNc1cccc(F)c1[N+](=O)[O-]`, the melting point lay within 93 to 95 °C.
For the compound `CCCCc1cccc(NC(=O)C=C(C)OC)c1`, the melting point amounted to 36 °C.
Compound `OC(CCC1CCNCC1)c1cc(C2CCCCC2)nc2ccccc12` (stereo not given) returned a melting point of 190 to 191 °C.
Regarding `CC1CC(=O)c2cccc(C#N)c21` (stereo not given), the melting point is 109 to 111 °C.
The compound `O=C(O)c1cccc2c(=O)c3ccccc3[nH]c12` registered a melting point greater than 300 °C.
As to `ON=CCOc1ccc(Oc2ccccc2)cc1`, the melting point was 102 to 105 °C.
In turn, `O=C(c1ccccc1)N1CC(=O)N2CCc3ccccc3C2C1` (stereo not given) returned a melting point of 162 to 163 °C.
Consider `Cc1cc(C#N)cc(CBr)c1`, for which the melting point was 80 to 81 °C.
Compound `CCCC(=O)NCc1c(-c2ccc(C)cc2)nc2ccc3ccccc3n12` displayed a melting point of 238 to 239 °C.
With `OC(CCCN1CCC(c2ncco2)CC1)c1ccc(F)cc1` (stereo not given) the figure was 99 to 100 °C; with `CCSc1cc(=O)c2c(O)cc(OC)c(C3CCN(C)CC3O)c2o1` (stereo not given), 60 °C.
Compound `CCCC(=O)c1cnn(C)c1S(=O)(=O)NC(=O)Nc1nc(C)nc(OC)n1` came in with a melting point of 174 to 176 °C.
As to `COC(=O)C1c2ccccc2Oc2ccccc21`, the melting point turned out to be 82 °C.
In turn, `COc1ccc(OCc2cccc(OCc3ccc4ccccc4n3)c2)cc1` had a melting point of 83 to 85 °C.
Under `CO[Si]1(OC)CCCNCCN1` stands 61 to 62 °C; under `Cc1ccc(S(=O)(=O)N2[C@@H](CCO)CC[C@H]2c2ccc(F)cc2)cc1` (racemic), 129 °C.
As to `CC1(C(=O)O)CCc2onc(-c3ccc(Cl)cc3)c2CC1` (stereo not given), the melting point turned out to be 163 °C.
Consider `O=C1CCC(N2Cc3cc(CNC(=O)c4cccc(Cl)c4)ccc3C2=O)C(=O)N1` (stereo not given), for which the melting point fell in the range of 293 to 295 °C.
Regarding `O=C(O)C1CCc2c(oc3ccc([N+](=O)[O-])cc23)C1` (stereo not given), the melting point lay within 229 to 232 °C.
With `COCc1nnc(SCC(=O)C23CC4CC(CC(C4)C2)C3)n1C` the figure was 109 to 111 °C.
For the compound `CC(C)(C)C1(O)CCCCC1`, the melting point was 49 to 50 °C.
`Cc1cn(-c2ccc(N3C[C@H](CO)OC3=O)cc2F)nn1` returned a melting point of 190 to 192 °C.
Under `CN1CCN(c2ccc(NC(=O)C3(C)CC3)cc2C(F)(F)F)C1=O` stands 90 to 91 °C.
The compound `COc1ccc2ccc(-c3ccccc3)cc2c1` displayed a melting point of 65.4 to 66.3 °C.
Compound `Cc1ccc(Br)c(C)c1C(O)=S` displayed a melting point of 98 to 103 °C.
Under `COc1cc(C(C)C)c2c(c1)S(=O)(=O)N(COc1cc(C(F)(F)F)nn1-c1ccncc1)C2=O` stands 161 to 162 °C; under `O=C(CC1C2=C(CCCC2)C(=O)N1c1ccc(Cl)cc1)N1CCCCC1` (stereo not given), 120 to 122 °C.
With `CCOC(=O)c1ccc2nc3c(c(=O)n2c1)CSC3`, the melting point fell in the range of 183 to 185 °C.
For the compound `COc1cc2cn[nH]c(=O)c2cc1OC`, the melting point lay within 254 to 256 °C.
With `Cc1cc2c(s1)N(C(C)C)c1ccccc1N=C2N1CCN(C)CC1` the figure was 120 to 121 °C; with `O=C1Nc2ccc(F)cc2C1c1ncnc2c1cnn2C1CCCCC1` (stereo not given), 282 to 286 °C; with `CCCCCCCCCCCCCCCCCCOc1cccc(NCC(=O)O)c1`, 92 °C.
Compound `COc1ccc(Cn2c(=O)ccc3cnc(Cl)cc32)cc1Cl` showed a melting point of 208 to 210 °C.
The compound `CCc1nc2c(cnn2CC)c(NC2CCOCC2)c1CNC(=O)c1cccc(C(=O)NCc2ccc(C)c(-c3cccc(CN4CC(C)NC(C)C4)c3)c2)c1` (stereo not given) registered a melting point of 109 to 112 °C.
Take `CCCCOc1c(CNC(=O)OC(C)(C)C)n(CC(C)(C)C)c(=O)c2ccc(/C=C/C(N)=O)cc12`: the melting point lay in the range of 121 to 122 °C.
With `O=C1CCOc2cc(F)ccc21` the figure was 61 to 62 °C; with `CCCc1ccc(OCCC(C)C)c2c(=O)cc(-c3nnn[nH]3)oc12`, 199 to 200 °C; with `CCCC1=C(C(=O)OCC)C(c2ccccc2OC2CCCC2)c2c[nH]nc2N1` (stereo not given), 195 °C.
Compound `CN1C(=O)N(c2cc(Cl)cc(Cl)c2)C(=O)[C@]12CN(Cc1ccccc1)C[C@H]2c1ccc(-c2cncnc2)cc1` (relative stereo) had a melting point of 228 °C.
The compound `COc1ccc(NC(=O)C2=C(O)c3ccccc3S(=O)(=O)N2C)c(=O)cc1` returned a melting point of 251 to 253 °C.
For `CC(C)c1cc2c(c(C(C)C)c1)Oc1ccc(C(N)=O)cc1N(CCN(C)C)C2=O`, the melting point was 223 to 225 °C.
Take `Cc1c(F)cccc1NS(=O)(=O)c1cc(S(=O)(=O)Nc2cccc(F)c2C)c2cc(O)ccc2c1`: the melting point was 128 to 130 °C.
The compound `Cn1c(COc2ccc(CC3SC(=O)NC3=O)cc2)nc2ccc(OCCc3ccc(N)cc3)cc21` (stereo not given) had a melting point of 184 to 188 °C.
Turning to `COc1ccc2c(c1)c(Cc1cc(=O)n(-c3ccc(C)cc3)[nH]1)c(C)n2C(=O)c1ccc(Cl)cc1`, the melting point was 131 to 133 °C.
As to `Cc1cc(Cl)ccc1N1C(=O)c2ccc(Cl)cc2C1=O`, the melting point lay in the range of 193 to 195 °C.
Take `Cc1c(NC(=O)OCc2ccccc2)cccc1C(C[N+](=O)[O-])c1c[nH]c2cc(OC3CCOC3)ccc12` (stereo not given): the melting point was 130 °C.
As for `COCn1c(=O)n(-c2ccc3c(c2)OCO3)c2ncccc21`, the melting point fell in the range of 152 to 153 °C.
As for `O=c1[nH]ncc2c1c(O)nc1ccc(Cl)c(Cl)c12`, the melting point was found to be 270 °C.
Under `CCN(C(=O)C(C)Oc1ccc(Oc2ncc(Cl)cc2Cl)cc1)C(CS)C(=O)O` (stereo not given) stands 89 to 91 °C; under `CC(C)(C)OC(=O)N1CCN(c2ccccc2O)CC1`, 115 to 117 °C; under `Cc1c(C(=O)NCc2ccc3c(Br)c(OCc4nnn[nH]4)ccc3c2)oc2ccccc12`, 212 to 215 °C.
`Cc1cc(F)ccc1-c1ccc2c(c1)NC(=O)CC(c1cccc(-n3ccnc3)c1)=N2` came in with a melting point of 170 to 172 °C.
With `FC(F)(F)c1ccc2nc(C3CCN(c4ncccc4Cl)CC3)[nH]c2c1` the figure was 74 °C; with `Cn1ncc2c(c1=O)C(Cc1ccccc1)NCCS2` (stereo not given), 112 to 114 °C; with `BrCc1nc2cc3ccccc3cc2nc1CBr`, 190 to 191 °C.
On to `CCc1cc(OC)c(OC)cc1Cc1cnc(N)nc1N`, for which the melting point lay within 206 to 207 °C.
`OCc1cccc2c1CCc1ccsc1-2` gave a melting point of 99 to 100 °C.
`O=c1[nH]c2ccc3cccnc3c2o1` yielded a melting point greater than 300 °C.
Compound `COc1ccc(COc2ccc(C(=O)N3CCc4cc(/C=C/CN(C)C)ccc43)cc2)cc1` came in with a melting point of 164 to 166 °C.
`O=Cc1ccc(Cl)c(Cl)c1O`: the melting point was found to be 97 °C.
With `COC(=O)[C@H]1CC[C@H](n2ccn(-c3ccc(OCc4ccccc4)cc3)c2=O)CC1` the figure was 183 to 185 °C.
Compound `COc1ccc(C(=O)Nc2ccc(OCc3ccccc3)cc2N)cc1C12CC3CC(CC(C3)C1)C2` yielded a melting point of 185 °C.
Turning to `CCCCCCCCCCc1nnnn1CC(=O)O`, the melting point fell in the range of 104 to 106 °C.
As to `O=C(Nc1ccccc1)OCc1cn(-c2cc3cc(C(=O)O)c(=O)[nH]c3cc2[N+](=O)[O-])cn1`, the melting point is greater than 300 °C.
As to `CCCC(=O)OCC(=O)C1(OC(=O)COC)CCC2C3CC(C)C4=CC(=O)C=CC4(C)C3C(O)CC21C` (stereo not given), the melting point was 132 to 134 °C.
`COCCn1c(S(C)=O)nc(-c2ccc(F)cc2)c1-c1ccnc(Nc2ccccc2)c1` (stereo not given) came in with a melting point of 83 to 85 °C.
For the compound `COc1ccc2c(n1)CC(=O)N2CCCO`, the melting point lay within 121 to 122 °C.

For the origin of these results see a melting point compilation (Tetko et al.; mined from patent text by program, amines drawn as free bases though some values may be those of a salt).
